From US8940704B2, “Advantageous salts of μ-opiate receptor peptides” (Cytogel Pharma, LLC, priority 2007, dated 2015)
≈ marks a conversion by molar mass, not a printed value.

What was measured:
[1] = Solution stability (HPLC total area normalization); type: physicochemical; conditions: for Solution stability, 2 weeks at 25° C. / Solution stability, 2 weeks at 40° C. / Solution stability, Time Zero: 90:10 acetonitrile:water with 0.1% TFA; for Solution stability, Time Zero: 0.3 mg/mL
Protocol: Solution Stability. The four final salt candidates were dissolved (in duplicate) in acetonitrile: water: (90:10) with 0.1% TFA at a concentration of 0.3 mg (free base basis) per mL of solvent. The scintillation vials were sealed. One vial of each salt solution was placed in a 40™C over for 2 weeks. Another vial of each salt solution was stored at 25° C. for 2 week. These solutions (and “time zero” solutions) were analyzed for CYT-1010 by HPLC.
(§1) HPLC Analysis. Salt candidates were analyzed by total area normalization (TAN). The samples were dissolved in acetonitrile:water (90:10) with 0.1% TFA at a free base concentration of 0.3 mg/mL.
(§2) • HPLC column: YMC-Pack ODS-A 150 mm, 4.6 mm, 5 micron • Guard Column (optional) None • Column Temp: 25±1° C. • Sample Temp: ambient • Autosampler Flush: 1:1 Water:CAN • Flow Rate: 1.5 mL/min • Injection Volume: 7 μL • UV Detection: 215 nm • Run Time: 32 minutes • Analysis Time: 32 minutes • Mobil Phase: A—0.1% TFA in water • B—0.1% TFA in CAN • Gradient Puym Program*: […]
The solution stability characteristics were evaluated by collecting HPLC data on solutions stored in sealed vials for two weeks at approximately 25 and 40° C. The storage solution consisted of 90:10 acetronitrile:water with 0.1% TFA which is the diluent for the HPLC assay.

[2] = Solid state stability (HPLC total area normalization); type: physicochemical; conditions: for Solid state stability, 2 weeks at 25° C. / Solid state stability, 2 weeks at 60° C.: sealed vial
Protocol: Solid State Stability. Power samples of the four final salt candidates were transferred (in duplicate) to scintillation vials and sealed. One vial of each salt was placed in a 60° C. over for 2 week. Another vial of each salt was stored at 25° C. for 2 week. These samples (and “time zero” solutions) were analyzed for CYT-1010 by HPLC.
as §1, §2
The solid state stability characteristics were evaluated by collecting HPLC data on salt samples stored in sealed vials at 25 and 60° C. for two weeks.

[3] = Photostability (ICH option 2 UV, HPLC); type: physicochemical; conditions: for Photostability, 2 weeks UV Exposed: ICH option 2 UV; for Photostability, 2 weeks UV Exposed / Photostability, 2 weeks Dark Control: about 25° C.; for Photostability, 2 weeks Dark Control: covered with aluminum foil; for decrease in area %, photostability: from time zero to UV exposed
Protocol: Photo Stability. Samples of the four final salt candidates were transferred (in duplicate) to crystallizing dishes and sealed with Saran® wrap. One dish of each salt was also covered with aluminum foil (as the dark controls). Another dish of each salt was not covered with aluminum foil (as the photoexposed samples). The samples were exposed to ICH compliant option 2 UV sources to examine their stability with respect to light at approximately 25° C. Dark controls and time zero samples were also analyzed for comparison. Samples were analyzed for CYT-1010 by HPLC.
as §1, §2
Samples of the four salt candidates were exposed to ICH compliant option 2 UV sources to examine their stability with respect to light at approximately 25° C. Dark controls were also analyzed for comparison.

[4] = Oxidation stability (pure oxygen atmosphere, HPLC); type: physicochemical
Protocol: Oxidation Stability. Samples of the four final salt candidates were exposed to a pure oxygen atmosphere for 2 weeks to examiner their stability with respect to oxidation at 25° C. Samples were analyzed for CYT-1010 by total area normalization for impurity profile by HPLC.
as §1, §2
Samples of the four salts were exposed to a pure oxygen atmosphere to examine their stability with respect to oxidation at 25° C.

[5] = Dynamic vapor sorption (DVS); type: physicochemical; conditions: 25° C.
Protocol: Dynamic Vapor Sorption (DVS) (Performed by Surface Measurement Systems Ltd., Allentown, Pa.). Samples were run in an automated dynamic vapor sorption analyzer from 0 to 95% relative humidity and back to 0% relative humidity at 25° C. in 5% RH steps. Samples were predried (to constant mass) under a dry nitrogen stream before analysis. Weight change as a function of humidity and time was recorded to construct a moisture isotherm and kinetic plot of water sorption and desorption. Sample masses were generally in the range of 1-5 mg.

[6] = HPLC impurity profile at time zero; type: physicochemical
Protocol: as §1, §2
The scaled-up aspartate, hydrochloride, lactate, and maleate salts together with the free base were analyzed in duplicate by total area normalization (TAN) to determine their impurity profiles. […] The salts were also stressed in solution using heat.
Samples were prepared at a free base concentration of 0.3 mg/mL. The diluent for all sample preparations was 90:10 acetronitrile:water with 0.1% TFA. All solutions were sonicated for at least five minutes prior to analysis. Analysis was done over four days. The impurity profile of the free base, as shown in the table below, was consistent over this time.
Time Zero. Some observations were made concerning the HPLC impurity profile of the free base and salt samples. First, impurities at 0.89, 0.92, 1.02, and 1.03 RRT (relative retention time) are detected in the time zero sample preparations of the free base and all four salts. The largest of these four impurities is the 1.02 RRT impurity which is between 0.4 and 0.5 area % in all five compounds. The maleate salt also has a very large impurity peak at time zero (2.7 area %) at 1.14 RRT. Thus the maleate salt has a relatively low area % purity of 96 area %.

[7] = physchem; conditions: aqueous buffer
[8] = target: delta receptors (Homo sapiens, UniProt P41143); conditions: selectivity mu over delta
delta receptors, sequence (P41143 whole entry): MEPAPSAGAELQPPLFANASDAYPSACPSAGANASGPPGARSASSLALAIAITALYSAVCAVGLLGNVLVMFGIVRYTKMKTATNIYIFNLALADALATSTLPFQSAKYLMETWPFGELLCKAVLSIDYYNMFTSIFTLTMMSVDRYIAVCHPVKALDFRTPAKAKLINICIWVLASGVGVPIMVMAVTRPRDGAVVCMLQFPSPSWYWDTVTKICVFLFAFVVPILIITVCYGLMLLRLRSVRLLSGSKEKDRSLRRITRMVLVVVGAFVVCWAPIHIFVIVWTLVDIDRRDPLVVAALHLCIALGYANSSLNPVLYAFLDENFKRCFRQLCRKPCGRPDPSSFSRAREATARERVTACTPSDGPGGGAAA

[9] = 2 weeks at 25° C. versus time zero
[10] = 2 weeks at 60° C. as compared to 25° C. data
[11] = 2 weeks pure oxygen atmosphere, 25° C.

Compound: NC(Cc1ccc(O)cc1)C(=O)NC1CCCCNC(=O)C(Cc2ccccc2)NC(=O)C(Cc2c[nH]c3ccccc23)NC1=O [Free Base, H-Tyr-c-[D-Lys-Trp-Phe]]
- Solution stability, 2 weeks at 25° C. ([1]; 2 weeks at 25° C.): 98.6 area %
- Solution stability, 2 weeks at 40° C. ([1]; 2 weeks at 40° C.): 98.7 area %
- Impurity by RRT 0.21 ([1]; solution, 2 weeks at 25° C.): 0.50 area %
- Impurity by RRT 0.89 ([1]; solution, 2 weeks at 25° C.): 0.06 area %
- Impurity by RRT 0.92 ([1]; solution, 2 weeks at 25° C.): 0.04 area %
- Impurity by RRT 0.95 ([1]; solution, 2 weeks at 25° C.): 0.06 area %
- Impurity by RRT 1.02 ([1]; solution, 2 weeks at 25° C.): 0.53 area %
- Impurity by RRT 1.03 ([1]; solution, 2 weeks at 25° C.): 0.18 area %
- Impurity by RRT 0.21 ([1]; solution, 2 weeks at 40° C.): 0.50 area %
- Impurity by RRT 0.89 ([1]; solution, 2 weeks at 40° C.): 0.04 area %
- Impurity by RRT 0.95 ([1]; solution, 2 weeks at 40° C.): 0.03 area %
- Impurity by RRT 1.02 ([1]; solution, 2 weeks at 40° C.): 0.51 area %
- Impurity by RRT 1.03 ([1]; solution, 2 weeks at 40° C.): 0.18 area %
- Solution stability, Time Zero [1]: 99.2 area %
- decrease in area %, solid state stability [2, 9]: 0.4 area %
- decrease in area %, solid state stability [2, 10]: decreased slightly
- Solid state stability, Time Zero [2]: 99.2 area %
- Solid state stability, 2 weeks at 25° C. [2]: 98.8 area %
- Solid state stability, 2 weeks at 60° C. [2]: 98.7 area %
- changes in HPLC-TAN values upon exposure to heat, light, or oxygen ([2]; summary of Tables 6-9): did not exhibit significant changes
- Photostability, 2 weeks UV Exposed [3]: 98.9 area %
- Photostability, 2 weeks Dark Control [3]: 99.0 area %
- Photostability, Time Zero [3]: 99.2 area %
- decrease in area %, photostability [3]: 0.3 area %
- Impurity by RRT 0.87 [4, 11]: 0.04 area %
- Impurity by RRT 0.89 [4, 11]: 0.30 area %
- Impurity by RRT 0.92 [4, 11]: 0.20 area %
- Impurity by RRT 0.95 [4, 11]: 0.04 area %
- Impurity by RRT 1.02 [4, 11]: 0.53 area %
- Impurity by RRT 1.03 [4, 11]: 0.20 area %
- Oxidation stability, 2 weeks Oxidation [4, 11]: 97.7 area %
- decrease in area %, oxidative stability ([4]; 2 weeks pure oxygen versus time zero): 1.5 area %
- Oxidation stability, Time Zero [4]: 99.2 area %
- DVS water uptake ([5]; by 90% RH): up to 1.7 wt %
- Impurity by RRT 0.89 [6]: 0.09 area %
- Impurity by RRT 0.92 [6]: 0.05 area %
- Impurity by RRT 1.02 [6]: 0.53 area %
- Impurity by RRT 1.03 [6]: 0.16 area %
- solubility ([7]; pH 7): < 3 µg/mL
- solubility ([7]; pH 10): 6 µg/mL (≈ 9.6 µM)

Compound: Lactate
- Solution stability, 2 weeks at 25° C. ([1]; 2 weeks at 25° C.): 98.5 area %
- Solution stability, 2 weeks at 40° C. ([1]; 2 weeks at 40° C.): 98.5 area %
- Impurity by RRT 0.21 ([1]; solution, 2 weeks at 25° C.): 0.59 area %
- Impurity by RRT 0.89 ([1]; solution, 2 weeks at 25° C.): 0.05 area %
- Impurity by RRT 0.92 ([1]; solution, 2 weeks at 25° C.): 0.11 area %
- Impurity by RRT 0.95 ([1]; solution, 2 weeks at 25° C.): 0.14 area %
- Impurity by RRT 1.02 ([1]; solution, 2 weeks at 25° C.): 0.49 area %
- Impurity by RRT 1.03 ([1]; solution, 2 weeks at 25° C.): 0.15 area %
- Impurity by RRT 0.21 ([1]; solution, 2 weeks at 40° C.): 0.62 area %
- Impurity by RRT 0.89 ([1]; solution, 2 weeks at 40° C.): 0.04 area %
- Impurity by RRT 0.92 ([1]; solution, 2 weeks at 40° C.): 0.04 area %
- Impurity by RRT 0.95 ([1]; solution, 2 weeks at 40° C.): 0.14 area %
- Impurity by RRT 0.98 ([1]; solution, 2 weeks at 40° C.): <0.03 area %
- Impurity by RRT 1.02 ([1]; solution, 2 weeks at 40° C.): 0.50 area %
- Impurity by RRT 1.03 ([1]; solution, 2 weeks at 40° C.): 0.16 area %
- Impurity by RRT 1.32 ([1]; solution, 2 weeks at 40° C.): <0.03 area %
- Impurity by RRT 2.39 ([1]; solution, 2 weeks at 40° C.): <0.03 area %
- Solution stability, Time Zero [1]: 99.2 area %
- decrease in area %, solid state stability [2, 9]: 0.2 area %
- decrease in area %, solid state stability [2, 10]: 0.5 area %
- Solid state stability, Time Zero [2]: 99.2 area %
- Solid state stability, 2 weeks at 25° C. [2]: 99.0 area %
- Solid state stability, 2 weeks at 60° C. [2]: 98.5 area %
- Photostability, 2 weeks UV Exposed [3]: 98.6 area %
- Photostability, 2 weeks Dark Control [3]: 99.0 area %
- Photostability, Time Zero [3]: 99.2 area %
- decrease in area %, photostability [3]: 0.6 area %
- Impurity by RRT 0.87 [4, 11]: <0.03 area %
- Impurity by RRT 0.89 [4, 11]: 0.24 area %
- Impurity by RRT 0.92 [4, 11]: 0.20 area %
- Impurity by RRT 0.95 [4, 11]: 0.13 area %
- Impurity by RRT 1.02 [4, 11]: 0.49 area %
- Impurity by RRT 1.03 [4, 11]: 0.15 area %
- Impurity by RRT 1.18 [4, 11]: <0.03 area %
- Oxidation stability, 2 weeks Oxidation [4, 11]: 98.8 area %
- Oxidation stability, Time Zero [4]: 99.2 area %
- DVS water uptake ([5]; 0-70% RH range): 1-3 wt %
- DVS water uptake ([5]; by 90% RH): up to 6 wt %
- Impurity by RRT 0.89 [6]: 0.04 area %
- Impurity by RRT 0.92 [6]: 0.08 area %
- Impurity by RRT 0.95 [6]: 0.10 area %
- Impurity by RRT 1.02 [6]: 0.49 area %
- Impurity by RRT 1.03 [6]: 0.13 area %
- Impurity by RRT 1.18 [6]: <0.03 area %

Compound: H-Tyr-Pro-Trp-Phe-NH2 [SEQ ID NO:1]
- fold weaker binding to delta receptors than to mu opiate receptor [8]: over 4000 fold
